PMC4104761, “Identification of a novel lytic peptide for the treatment of solid tumours” (Genes & Cancer, 2014)

Test system: U87 cells
Assay: Comparison of peptide variants by crystal violet staining and light microscopy
Settings: U87 cells; 7.5, 10, 15, 20 and 25 µg/ml; 3 hours incubation
Description: The sizes of the resulting in silico peptides varied from 10 to 30 amino acids. In order to facilitate their cellular internalisation, a TAT-HIV sequence was attached to the C-terminal ends. All peptides were […]. The peptide library was produced by Cambridge Peptides (Cambridge, UK). The peptides were then screened with the MTT (3-(4,5-dimethylthiazol-2-yl)-2,5-diphenyltetrazolium bromide) assay on U87 human glioma cells. Cellular morphology after peptide exposure was assessed by crystal violet staining and light microscopy. All experiments were performed in triplicate.
To increase the stability of the peptide, two further sub-formulations of the original formula (L-aa, containing only L-amino acids) were created: D-aa (retro inversed, (ri)), a peptide comprised of a backward sequence of the original in silico formula, yet made up solely of D-amino acids and an analogue peptide to original in silico peptide formula, comprised of D-amino acids. D-amino acids are highly resistant to protease mediated degradation and have a low immunogenic response. The respective peptide variants were tested in the following concentrations: 7.5, 10, 15, 20 and 25 µg/ml and incubated for 3 hours.

**Q.** Which “cytotoxic effect / potency by crystal violet staining” value does the source give for Ac-YGRKKRRQRRRGKTLRVAKAIYKRYIE-NH2 here?
**A.** The value was “cytotoxic effect”.
